From article PMC6149668, “In Silico Identification and In Vitro Evaluation of Natural Inhibitors of Leishmania major Pteridine Reductase I” (Molecules : A Journal of Synthetic Chemistry and Natural …, 2017)
Like-named read-outs stand apart in the source and are kept apart here. Blank lines part the entries; values can stand above or below the compound they belong to.

Legend:
[1] = molecular target: T1, recombinant LmPTR1 (Leishmania major pteridine reductase I) (Leishmania major, UniProt Q01782); assay: biochemical; conditions: for % Inhibition at c = 50 µM: inhibitor 50 µM
T1 construct: poly-His (N); made in house; host or cells: E. coli BL21 (DE3)
T1 sequence (Q01782 whole entry): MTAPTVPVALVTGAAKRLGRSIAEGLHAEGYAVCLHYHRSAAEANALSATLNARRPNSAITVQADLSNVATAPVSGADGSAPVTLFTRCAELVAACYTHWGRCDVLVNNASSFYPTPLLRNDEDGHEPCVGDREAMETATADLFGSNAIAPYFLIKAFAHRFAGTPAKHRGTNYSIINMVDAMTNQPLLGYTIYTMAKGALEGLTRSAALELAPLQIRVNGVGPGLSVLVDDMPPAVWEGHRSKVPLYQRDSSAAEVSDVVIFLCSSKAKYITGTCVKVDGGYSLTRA
Protocol: (§1) In order to assess the inhibitory activity of the compounds identified in silico, spectrophotometric inhibition assays were performed on recombinant LmPTR1, measuring the decreasing concentration of NADPH at 340 nm as a linear kinetic parameter for LmPTR1 activity at saturating concentrations of NADPH (co-substrate) and folic acid (substrate). First, each in silico hit was added to a concentration of 50 µM, and the resulting linear plots of absorbance vs. time were compared with those recorded in the absence of an inhibitor.
The determination of the inhibitory activity of the in silico hits was carried out by a UV-Vis spectrophotometric assay on recombinantly produced LmPTR1. In order to assess the catalytic activity of LmPTR1, the oxidation of NADPH to NADP^+ was followed with a Hitachi U-2900 UV-Vis spectrophotometer at 340 nm as a linear kinetic parameter. Reference measurements without the addition of inhibitors were used to determine the full catalytic activity (100% value), and subsequent measurements with inhibitory compounds were calculated accordingly. The total assay volume of 1 mL consisted of sodium phosphate buffer (50 mM NaH2PO4, 100 mM NaCl, pH 6), 250 µM NADPH, 35 µg LmPTR1, 22.5 µM folic acid, and varying inhibitor concentrations. The tested inhibitors were dissolved in DMSO (10 mM stock solutions), and appropriate volumes were added to the assays to obtain the desired assay concentrations in such a way that a DMSO concentration between 0.1–1% resulted. […] Initial tests were performed at an inhibitor concentration of 50 µM in triplicate.

[2] = Solubility under the LmPTR1 assay conditions; assay type: physicochemical; conditions: sodium phosphate buffer pH 6, DMSO 0.1–1%
Protocol: as §1, with “inhibitor. […] For 2,3-dehydrosilybin A (1), complete inhibition could not be achieved. The maximum of inhibition achieved with this compound was 64% at a concentration of 50 µM. […] Plots of the inhibitory activity as a function of concentration for compounds 1 to 6 are shown in the Supplementary Materials Figures S10–S15, and the resulting IC50 and EC50 values are reported in Table 1.” for “inhibitor.”
The determination of the inhibitory activity of the in silico hits was carried out by a UV-Vis spectrophotometric assay on recombinantly produced LmPTR1. […] Reference measurements without the addition of inhibitors were used to determine the full catalytic activity (100% value), and subsequent measurements with inhibitory compounds were calculated accordingly. […] No inhibition of LmPTR1 could be detected by DMSO itself at the mentioned concentrations. […]

[3] = in brackets: 95% confidence interval, n = 4 to 7 concentrations, non-linear regression, read-out: IC50
[4] = pH 6, inhibitor 50 µM, 250 µM NADPH, 22.5 µM folic acid, pH 6, triplicate, n.i. = no inhibition at 50 µM, read-out: % Inhibition at c = 50 µM
[5] = 250 µM NADPH, 22.5 µM folic acid, pH 6, triplicate, n.i. = no inhibition at 50 µM

Compound: CC(C)=CCc1c(O)cc2oc3cc(O)c(O)c(CCC(C)(C)O)c3c(=O)c2c1O [garcinone C]
IC50 [1, 3]: 26.3 µM

Compound: COc1cc([C@@H]2Oc3ccc([C@H]4Oc5cc(O)cc(O)c5C(=O)[C@@H]4O)cc3O[C@H]2CO)ccc1O [isosilybin B]
inhibition at 50 µM ([1]; pH 6, read-out: % Inhibition at c = 50 µM): 26%

inhibition at 50 µM [1, 4]: 19%
Compound: COc1cc([C@@H]2Oc3cc([C@H]4Oc5cc(O)cc(O)c5C(=O)[C@@H]4O)ccc3O[C@H]2CO)ccc1O [silybin B]

inhibition at 50 µM [1, 4]: 20%
Compound: O=C(/C=C/c1ccc(O)c(O)c1)O[C@H](Cc1ccc(O)c(O)c1)C(=O)O [rosmarinic acid]

inhibition at 50 µM [1, 4]: 22%
Compound: COc1cc(O)c(CC=C(C)C)c2c1C(=O)CC(c1ccc(O)cc1)O2 (stereo not shown) [isoxanthohumol]

Compound: COc1cc([C@H]2Oc3cc(-c4oc5cc(O)cc(O)c5c(=O)c4O)ccc3O[C@@H]2CO)ccc1O [2,3-dehydrosilybin A]
EC50 [1]: 7.3 µM
inhibition at 50 µM ([1]; at a concentration of 50 µM, concentration-effect curve, read-out: maximum of inhibition achieved): 64%
inhibition at 50 µM [1, 4]: > 50%
solubility under the assay conditions [2]: limited solubility

inhibition at 50 µM [1, 4]: 24%
Compound: O=C(O[C@@H]1Cc2c(O)cc(O)cc2O[C@@H]1c1ccc(O)c(O)c1)c1cc(O)c(O)c(O)c1 [(−)-epicatechin-3-gallate]

Compound: icariside II
% Inhibition at c = 50 µM [1, 5]: 35%

Compound: C=C(C)[C@H](CC=C(C)C)Cc1c(O)cc(O)c2c1O[C@H](c1ccc(O)cc1O)CC2=O [sophoraflavanone G]
IC50 [1, 3]: 19.2 µM

Compound: O=c1c(O)c(-c2cc(O)c(O)c(O)c2)oc2cc(O)cc(O)c12 [myricetin]
IC50 [1, 3]: 21 µM
inhibition at 50 µM ([1]; pH 6, read-out: % Inhibition at c = 50 µM, inhibitor 50 µM, 250 µM NADPH, 22.5 µM folic acid, pH 6, triplicate, n.i. = no inhibition at 50 µM): > 50%

inhibition at 50 µM [1, 4]: 24%
Compound: COc1cc([C@@H]2Oc3c(O)cc([C@H]4Oc5cc(O)cc(O)c5C(=O)[C@@H]4O)cc3[C@H]2CO)ccc1O [silychristin]

inhibition at 50 µM [1, 4]: 14%
Compound: COc1cc([C@H]2Oc3cc([C@H]4Oc5cc(O)cc(O)c5C(=O)[C@@H]4O)ccc3O[C@@H]2CO)ccc1O [silybin A]

Compound: O=C(/C=C/c1ccc(O)c(O)c1/C=C/c1ccc(O)c(O)c1)O[C@H](Cc1ccc(O)c(O)c1)C(=O)O [salvianolic acid A]
IC50 [1]: 42.2 µM
inhibition at 50 µM [1, 4]: > 50%

Compound: phillyrin
% Inhibition at c = 50 µM [1, 5]: n.i.

% Inhibition at c = 50 µM [1, 5]: n.i.
Compound: COc1ccc([C@H]2OC[C@H]3[C@@H]2CO[C@@H]3c2cc(OC)c(OC)c(OC)c2)cc1OC [magnolin]

Compound: O=c1cc(-c2ccc(O)cc2)oc2cc(OC3OC(CO)C(O)C(O)C3O)cc(O)c12 (stereo not shown) [apigenin-7-glucoside]
IC50 [1]: 43.5 µM
inhibition at 50 µM [1, 4]: > 50%
